Residue numbers refer to the chain shown, from its start.

What all share (test): Colorimetric ALA release activity assay, hemin inhibition of holoenzyme
What all share (format): biochemical

Assay [1] has as its target T1, WT holoALAS2 (residues 54–587) (Homo sapiens, UniProt P22557).
T1 construct: His6-SUMO (N, cleaved yes); made in house; host or cells: Escherichia coli BL21-Codon Plus (DE3)-RIL
T1 sequence (P22557 54-587): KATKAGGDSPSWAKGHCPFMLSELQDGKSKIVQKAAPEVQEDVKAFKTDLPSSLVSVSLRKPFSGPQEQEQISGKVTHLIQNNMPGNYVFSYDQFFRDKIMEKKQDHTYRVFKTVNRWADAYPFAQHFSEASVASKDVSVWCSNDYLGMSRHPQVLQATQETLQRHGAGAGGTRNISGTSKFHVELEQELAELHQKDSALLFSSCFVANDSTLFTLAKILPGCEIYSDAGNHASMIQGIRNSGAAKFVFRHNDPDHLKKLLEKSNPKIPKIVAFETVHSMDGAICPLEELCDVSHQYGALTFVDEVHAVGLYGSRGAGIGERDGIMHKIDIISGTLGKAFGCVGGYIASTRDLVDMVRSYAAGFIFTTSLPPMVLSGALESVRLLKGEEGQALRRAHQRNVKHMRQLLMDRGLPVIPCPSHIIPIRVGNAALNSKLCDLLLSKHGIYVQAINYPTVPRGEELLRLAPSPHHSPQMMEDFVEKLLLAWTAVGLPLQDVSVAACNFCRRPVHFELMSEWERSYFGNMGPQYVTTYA
The note with it: 0.1 μM–60 μM hemin titrated into holoALAS2, rate of ALA release. The method, then:
(§1) A discontinuous colorimetric activity assay adapted from Shoolingin-Jordan et al. and Bailey et al. was used to measure the enzyme activity ([48], [74]). The reaction was initiated by adding 100 nM purified enzyme to 50 mM potassium phosphate, pH 7.0, 10 mM MgCl2, 1 mM DTT, 100 mM glycine, and 300 μM succinyl-CoA (175 μl total). The reaction was incubated at 37 °C for 15 min and terminated with 100 μl of cold 10% trichloroacetic acid. The precipitated protein was removed by centrifugation for 5 min at 13,000g, and 240 μl of the supernatant was mixed with 240 μl of 1 M sodium acetate, pH 4.6. To derivatize ALA, 20 μl of acetylacetone was added to the mixture and boiled at 100 °C for 10 min. After the sample was cooled for 20 min, 100 μl aliquots were transferred into a clear 96-well plate in triplicate. An equal volume of Ehrlich’s reagent (p-Dimethylaminobenzaldehyde, DMAB) was added to each well, and the absorbance was monitored at 553 nm using a microplate reader (Thermo Fisher Scientific). The peak absorbance value was converted to molar ALA concentration using ε553 = 60,400 M^−1 cm^−1.
(§2) Inhibition of enzyme activity was determined by titrating hemin (0.1 μM–60 μM) into the substrate mixture before initiating the reaction upon enzyme addition. Hemin was dissolved in 100% dimethyl sulfoxide (DMSO) (ε403 nm = 170,000 M^−1 cm^−1) and serially diluted in 100% DMSO to prepare stock solutions for each concentration. The final DMSO concentration in the reaction mixture was 2%. All experiments were performed with a minimum of three biological replicates, each with three technical replicates. Data were fitted using nonlinear regression to generate an inhibitor dose-response curve (IC50) or an agonist dose-response curve (EC50), and statistical significance was determined using a one-way ANOVA with GraphPad Prism 10.

Assay [2] deals with T2, holoALAS2 ΔC (residues 54–547) (Homo sapiens, UniProt P22557).
T2 construct: a truncation without the C-terminal CXXC motif (ΔC, residues 54–547); His6-SUMO (N, cleaved yes); made in house; host or cells: Escherichia coli BL21-Codon Plus (DE3)-RIL
T2 sequence (P22557 54-547): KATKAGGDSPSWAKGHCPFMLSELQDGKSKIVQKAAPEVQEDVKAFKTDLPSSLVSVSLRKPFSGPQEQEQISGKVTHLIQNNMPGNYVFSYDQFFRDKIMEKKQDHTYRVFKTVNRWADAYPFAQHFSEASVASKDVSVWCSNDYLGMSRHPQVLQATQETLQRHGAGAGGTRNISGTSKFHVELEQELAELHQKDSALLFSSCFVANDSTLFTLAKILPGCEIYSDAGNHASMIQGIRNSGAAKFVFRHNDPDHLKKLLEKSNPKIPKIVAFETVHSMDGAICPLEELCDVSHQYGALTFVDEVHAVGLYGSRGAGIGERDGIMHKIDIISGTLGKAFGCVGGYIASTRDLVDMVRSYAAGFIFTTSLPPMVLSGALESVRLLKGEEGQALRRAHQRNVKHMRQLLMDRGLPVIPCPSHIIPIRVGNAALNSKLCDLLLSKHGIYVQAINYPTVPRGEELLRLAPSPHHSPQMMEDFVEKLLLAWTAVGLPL
The method, then:
as §1, §2

Assay [3] addresses T3, holoALAS2 Cys-mut (C70A/C555A/C558A) (Homo sapiens, UniProt P22557, C555A/C558A/C70A).
T3 construct: Site-directed mutagenesis was performed on the mature ALAS2 (residues 54–587) construct to generate truncations and cysteine mutants; His6-SUMO (N, cleaved yes); made in house; host or cells: Escherichia coli BL21-Codon Plus (DE3)-RIL
T3 sequence (P22557 54-587 C70A/C555A/C558A): T1 sequence (P22557 54-587) with C17A, C502A, C505A
As to conditions: 0.1 μM–60 μM hemin titrated into holoenzyme. How it is done:
as §1, §2

With ferric chloride heme [hemin], the IC50 is 18.7 ± 0.5 µM in assay [1], 31.3 ± 0.8 µM in assay [2] (0.1 μM–60 μM hemin titrated into holoenzyme) and 24.8 ± 0.5 µM in assay [3]. The “residual enzyme activity, of basal activity” value in assay [2] (100-fold excess heme) was ~25%.

These data come from paper PMC12856317, “A reversible feedback mechanism regulating mitochondrial heme synthesis” (The Journal of Biological Chemistry, 2025).
